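These data come from cells grown in 96-well plates and exposed to compound for 48 hours at five concentrations. Abbreviation: GI50, concentration required for 50% inhibition of growth.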 Active and inactive are the calls of the source. Rule as the data show it: active = GI50 up to about 1.1 µM and inactive = higher.
How the values were obtained:
Assay in all cases: NCI tumour cell line growth inhibition, 48 h
OVCAR-8 = test system: OVCAR-8
TK-10 = test system: TK-10
NCI-H460 = test system: NCI-H460
NCI-H23 = test system: NCI-H23
HL-60 = test system: HL-60
OVCAR-5 = test system: OVCAR-5
SK-MEL-28 = test system: SK-MEL-28
SN12C = test system: SN12C
SF-295 = test system: SF-295
RXF 393 = test system: RXF 393
HCT-15 = test system: HCT-15
UACC-62 = test system: UACC-62
A498 = test system: A498
K562 = test system: K562
SR = test system: SR
COLO 205 = test system: COLO 205
MDA-MB-435 = test system: MDA-MB-435
A549 = test system: A549
OVCAR-3 = test system: OVCAR-3
PC-3 = test system: PC-3

Q: Which GI50 (OVCAR-8) does the source give for Cc1ccc(S(=O)(=O)Nn2c(S)c(C#N)c(-c3ccc(N(C)C)cc3)c(C#N)c2=O)cc1 here?
A: 15.9 µM (inactive)

Q: And the GI50 (TK-10)?
A: 19.8 µM (inactive)

Q: What about the GI50 (NCI-H460) of the same molecule?
A: 15.2 µM (inactive)

Q: What about the GI50 (NCI-H23) of the same molecule?
A: 19.1 µM (inactive)

Q: And the GI50 (HL-60)?
A: 20.7 µM (inactive)

Q: And the GI50 (OVCAR-5)?
A: 35 µM (inactive)

Q: What about the GI50 (SK-MEL-28) of the same molecule?
A: 20.1 µM (inactive)

Q: What about the GI50 (SN12C) of the same molecule?
A: 26.4 µM (inactive)

Q: What about the GI50 (SF-295) of the same molecule?
A: 34.2 µM (inactive)

Q: What about the GI50 (RXF 393) of the same molecule?
A: 19.3 µM (inactive)

Q: And the GI50 (HCT-15)?
A: 20.3 µM

Q: And the GI50 (UACC-62)?
A: 25.7 µM (inactive)

Q: What about the GI50 (A498) of the same molecule?
A: 17.3 µM (inactive)

Q: And the GI50 (K562)?
A: 38.8 µM (inactive)

Q: What about the GI50 (SR) of the same molecule?
A: 23.7 µM (inactive)

Q: And the GI50 (COLO 205)?
A: 22 µM (inactive)

Q: And the GI50 (MDA-MB-435)?
A: 19.6 µM (inactive)

Q: And the GI50 (A549)?
A: 40.5 µM (inactive)

Q: O=C(NNc1cn[nH]c(=O)c1Cl)/C(=C/c1ccc2c(c1)OCO2)NC(=O)c1ccccc1 was tested. Which GI50 (OVCAR-8) did it give?
A: 36.7 µM (inactive)

Q: And the GI50 (TK-10)?
A: 34 µM (inactive)

Q: What about the GI50 (NCI-H460) of the same molecule?
A: 35.6 µM (inactive)

Q: And the GI50 (NCI-H23)?
A: 42.5 µM (inactive)

Q: And the GI50 (OVCAR-5)?
A: > 100 µM (inactive)

Q: What about the GI50 (SK-MEL-28) of the same molecule?
A: 74.3 µM (inactive)

Q: And the GI50 (SN12C)?
A: 50 µM (inactive)

Q: And the GI50 (OVCAR-3)?
A: 71.3 µM (inactive)

Q: What about the GI50 (SF-295) of the same molecule?
A: 71.3 µM (inactive)

Q: And the GI50 (HCT-15)?
A: 31.7 µM

Q: And the GI50 (UACC-62)?
A: 35.2 µM (inactive)

Q: What about the GI50 (COLO 205) of the same molecule?
A: 46.9 µM (inactive)

Q: What about the GI50 (MDA-MB-435) of the same molecule?
A: 79.4 µM (inactive)

Q: What about the GI50 (A549) of the same molecule?
A: > 100 µM (inactive)

Q: What about the GI50 (PC-3) of the same molecule?
A: 61.2 µM (inactive)

Q: CN[C@@H](C)[C@H](OP(=O)(O)OC1[C@@H](O)[C@H](O)C(O)[C@H](O)[C@@H]1O)c1ccccc1 (stereo partly drawn) was tested. Which GI50 (OVCAR-8) did it give?
A: > 100 µM (inactive)

Q: What about the GI50 (TK-10) of the same molecule?
A: > 100 µM (inactive)

Q: And the GI50 (NCI-H460)?
A: > 100 µM (inactive)

Q: And the GI50 (NCI-H23)?
A: > 100 µM (inactive)

Q: What about the GI50 (HL-60) of the same molecule?
A: > 100 µM (inactive)

Q: And the GI50 (OVCAR-5)?
A: > 100 µM (inactive)

Q: What about the GI50 (SK-MEL-28) of the same molecule?
A: > 100 µM (inactive)

Q: And the GI50 (SN12C)?
A: > 100 µM (inactive)

Q: And the GI50 (OVCAR-3)?
A: > 100 µM (inactive)

Q: What about the GI50 (SF-295) of the same molecule?
A: > 100 µM (inactive)

Q: And the GI50 (HCT-15)?
A: > 100 µM

Q: And the GI50 (UACC-62)?
A: > 100 µM (inactive)

Q: And the GI50 (A498)?
A: > 100 µM (inactive)

Q: And the GI50 (COLO 205)?
A: > 100 µM (inactive)

Q: And the GI50 (MDA-MB-435)?
A: > 100 µM (inactive)

Q: What about the GI50 (A549) of the same molecule?
A: > 100 µM (inactive)

Q: And the GI50 (PC-3)?
A: > 100 µM (inactive)

Q: NC1CC(=O)c2cc(Cl)sc21 (stereo not drawn) was tested. Which GI50 (OVCAR-8) did it give?
A: > 100 µM (inactive)

Q: And the GI50 (TK-10)?
A: > 100 µM (inactive)

Q: And the GI50 (NCI-H460)?
A: > 100 µM (inactive)

Q: And the GI50 (NCI-H23)?
A: > 100 µM (inactive)

Q: What about the GI50 (HL-60) of the same molecule?
A: > 100 µM (inactive)

Q: What about the GI50 (OVCAR-5) of the same molecule?
A: > 100 µM (inactive)

Q: What about the GI50 (SK-MEL-28) of the same molecule?
A: > 100 µM (inactive)

Q: What about the GI50 (SN12C) of the same molecule?
A: > 100 µM (inactive)

Q: What about the GI50 (OVCAR-3) of the same molecule?
A: > 100 µM (inactive)

Q: And the GI50 (SF-295)?
A: > 100 µM (inactive)

Q: What about the GI50 (RXF 393) of the same molecule?
A: > 100 µM (inactive)

Q: And the GI50 (HCT-15)?
A: > 100 µM

Q: And the GI50 (UACC-62)?
A: > 100 µM (inactive)

Q: What about the GI50 (K562) of the same molecule?
A: 0.929 µM (active)

Q: What about the GI50 (COLO 205) of the same molecule?
A: > 100 µM (inactive)

Q: And the GI50 (MDA-MB-435)?
A: > 100 µM (inactive)

Q: What about the GI50 (A549) of the same molecule?
A: > 100 µM (inactive)

Q: What about the GI50 (PC-3) of the same molecule?
A: > 100 µM (inactive)

Q: How did the GI50 (OVCAR-8) turn out when CCC(=N\NC(N)=S)/C(C)=N/O was run?
A: > 100 µM (inactive)

Q: What about the GI50 (TK-10) of the same molecule?
A: > 100 µM (inactive)

Q: And the GI50 (NCI-H460)?
A: > 100 µM (inactive)

Q: And the GI50 (NCI-H23)?
A: > 100 µM (inactive)

Q: What about the GI50 (OVCAR-5) of the same molecule?
A: > 100 µM (inactive)

Q: What about the GI50 (SK-MEL-28) of the same molecule?
A: > 100 µM (inactive)

Q: And the GI50 (SN12C)?
A: > 100 µM (inactive)

Q: And the GI50 (OVCAR-3)?
A: > 100 µM (inactive)

Q: And the GI50 (SF-295)?
A: > 100 µM (inactive)

Q: And the GI50 (RXF 393)?
A: > 100 µM (inactive)

Q: What about the GI50 (HCT-15) of the same molecule?
A: > 100 µM

Q: And the GI50 (UACC-62)?
A: > 100 µM (inactive)

Q: And the GI50 (K562)?
A: > 100 µM (inactive)

Q: And the GI50 (COLO 205)?
A: > 100 µM (inactive)

Q: And the GI50 (MDA-MB-435)?
A: > 100 µM (inactive)

Q: What about the GI50 (A549) of the same molecule?
A: > 100 µM (inactive)

Q: What about the GI50 (PC-3) of the same molecule?
A: > 100 µM (inactive)

Q: Which GI50 (OVCAR-8) does the source give for COc1ccc(P2(=S)Oc3ccccc3-c3ccccc3O2)cc1 here?
A: 0.802 µM (active)

Q: And the GI50 (NCI-H460)?
A: 0.35 µM (active)

Q: And the GI50 (NCI-H23)?
A: 0.579 µM (active)

Q: And the GI50 (HL-60)?
A: 0.284 µM (active)

Q: And the GI50 (OVCAR-5)?
A: > 100 µM (inactive)

Q: What about the GI50 (SK-MEL-28) of the same molecule?
A: > 67.1 µM (inactive)

Q: And the GI50 (SN12C)?
A: 0.37 µM (active)

Q: And the GI50 (OVCAR-3)?
A: 0.226 µM (active)

Q: And the GI50 (SF-295)?
A: 0.296 µM (active)

Q: And the GI50 (HCT-15)?
A: 0.48 µM

Q: And the GI50 (UACC-62)?
A: 0.733 µM (active)

Q: And the GI50 (A498)?
A: 0.306 µM (active)

Q: What about the GI50 (K562) of the same molecule?
A: 0.196 µM (active)

Q: And the GI50 (COLO 205)?
A: 0.343 µM (active)

Q: And the GI50 (MDA-MB-435)?
A: 0.144 µM (active)

Q: What about the GI50 (A549) of the same molecule?
A: 0.449 µM (active)

Q: What about the GI50 (PC-3) of the same molecule?
A: 0.193 µM (active)

Q: For O=C(O)Cn1nnc2c(=O)[nH][nH]c(=O)c21, which GI50 (OVCAR-8) is on record?
A: > 100 µM (inactive)

Q: And the GI50 (TK-10)?
A: > 100 µM (inactive)

Q: And the GI50 (NCI-H460)?
A: > 100 µM (inactive)

Q: And the GI50 (NCI-H23)?
A: > 100 µM (inactive)

Q: What about the GI50 (HL-60) of the same molecule?
A: > 100 µM (inactive)

Q: What about the GI50 (OVCAR-5) of the same molecule?
A: > 100 µM (inactive)

Q: And the GI50 (SK-MEL-28)?
A: > 100 µM (inactive)

Q: What about the GI50 (SN12C) of the same molecule?
A: > 100 µM (inactive)

Q: And the GI50 (OVCAR-3)?
A: > 100 µM (inactive)

Q: And the GI50 (SF-295)?
A: > 100 µM (inactive)

Q: And the GI50 (HCT-15)?
A: > 100 µM

Q: What about the GI50 (K562) of the same molecule?
A: > 10 µM (inactive)

Q: What about the GI50 (SR) of the same molecule?
A: > 100 µM (inactive)

Q: And the GI50 (COLO 205)?
A: > 100 µM (inactive)

Q: What about the GI50 (MDA-MB-435) of the same molecule?
A: > 100 µM (inactive)

Q: And the GI50 (A549)?
A: > 100 µM (inactive)

Source: ChEMBL document CHEMBL1201862, “PubChem BioAssay data set” (2004)
